Assays:
AMARE = test: greenhouse experiment, post-emergence treatment, herbicidal activity against AMARE; format: in vivo, Amaranthus retroflexus; conditions: application rate 0.5 kg/ha, post-emergence method; scale from 0 to 100
Source text: (§1) The seeds of the test plants were sown separately for each species. For the post-emergence treatment, the test plants were first grown to a height of 3 to 15 cm, depending on the plant habit, and only then treated with the active ingredients which had been suspended or emulsified in water. For this purpose, the test plants were either sown directly and grown in the same containers, or they were first grown separately as seedlings and transplanted into the test containers a few days prior to treatment. Depending on the species, the plants were kept at 10-25° C. or 20-35° C. The test period extended over 2 to 4 weeks. During this time, the plants were tended, and their response to the individual treatments was evaluated. Evaluation was carried out using a scale from 0 to 100. 100 means no emergence of the plants, or complete destruction of at least the aerial moieties, and 0 means no damage, or normal course of growth. A good herbicidal activity is given at values of at least 70 and a very good herbicidal activity is given at values of at least 85. The plants used in the greenhouse experiments belonged to the following species: [table]

CHEAL = test: greenhouse experiment, post-emergence treatment, herbicidal activity against CHEAL; format: in vivo, Chenopodium album; conditions: application rate 0.5 kg/ha, post-emergence method; scale from 0 to 100
Source text: as §1

O=c1oc2nccnc2c(O)c1-c1cc(Cl)cc(N2CCOCC2)c1C(F)(F)F [1-4, 7-[5-chloro-3-morpholino-2-(trifluoromethyl)phenyl]-8-hydroxy-pyrano[2,3-b]pyrazin-6-one]
herbicidal activity against AMARE (AMARE): very good herbicidal activity (a very good herbicidal activity is given at values of at least 85) | herbicidal activity against CHEAL (CHEAL): very good herbicidal activity (a very good herbicidal activity is given at values of at least 85)

Reference: patent US20130012389A1, “Substituted Pyridazines Having Herbicidal Action” (BASF SE, priority 2010, published 2013)
